Test results: US10669301B2, “Phosphoramidite building blocks for sugar-conjugated oligonucleotides” (AM CHEMICALS LLC, priority 2013, dated 2020)

Assay: Hydrolysis of phosphoramidite building blocks in 95% aqueous MeCN followed by reverse-phase HPLC
Assay type: physicochemical
Details: 95% aqueous MeCN at 25° C.
Method: The hydrolysis of phosphoramidite building blocks 12 and 16 in 95% aqueous MeCN at 25° C. was followed by reverse-phase HPLC.

Substance | half-life of hydrolysis [h]
5′-O-(4,4′-Dimethoxytrityl)-3′-O—[(N,N-diisopropylamino)[3-[(2,3,4,6-tetra-O-acetyl-β-D-glucopyranosyl)oxy]propyl]phosphino]thymidine [Compound 12] | 48
5′-O-(4,4′-Dimethoxytrityl)-3′-O—[(N,N-diisopropylamino)[2-[[2-[(2,3,4,6-tetra-O-acetyl-β-D-glucopyranosyl)oxy]ethyl]oxy]ethoxy]phosphinyl]thymidine [Compound 16] | 33
